Data taken from patent US20240132525A1, “BORON […], CO[…], METHODS AND USES THEREOF” (priority 2022, published 2024).

How the values were obtained:
IL-31 = assay: Cytokine function assay for IL-31 in DH82 cells; type: cell-based, canine; conditions: Canis lupus familiaris, DH82; Table 3a; read-out: IC50 IL-31
Method: Cytokine Function Assay Protocol for IL-31
The protocol for the cytokine function assay for IL-31 is set forth below: • 1. […] After 24 hr, wash with 37° C. pre-warmed PBS (100 uL/well). • 3. Add serum-free MEM, 90 uL per well, 2 hr, 37° C. • 4. Add 10 uL 10×IL-31 (40, 10, 2.5 ug/mL) in duplicate, 5 min, 37° C. • 5. Remove medium, add 60 uL lysis buffer per well. Agitate on a plate shaker (˜350 rpm) for 10 min at RT. • 6. […] Add 6 uL Acceptor Mix, cover with aluminum foil, quickly spin at 1000 rpm, shake at 120 rpm for 2 min, then incubate at RT for 1 hr. • 8. Add 6 uL Donor Mix, cover with aluminum foil, quickly spin at 1000 rpm, shake at 120 rpm for 2 min, then incubate at RT for 1 hr. • 9. Measure the fluorescence using EnVision™ plate reader.

JAK2 = JAK2 (Homo sapiens (Human), UniProt O60674); assay: Biochemical kinase assay (33P-ATP filter-binding), JAK2; conditions: Table 3a; read-out: IC50 JAK2
Excerpt: (§1) Biochemical Kinase Assay Protocol (JAK)
(§2) Reaction Procedure: • 1. […] Detected kinase activity by filter-binding method.

JAK1 = JAK1 (Homo sapiens (Human), UniProt P23458); assay: Biochemical kinase assay (33P-ATP filter-binding), JAK1; conditions: Table 3a; read-out: IC50 JAK1
Excerpt: as §1, §2

[1] = tested on: recombinant canine IL-31 induced pruritic behaviors; assay: IL-31 induced itch behavior in Beagle dogs; type: in vivo; conditions: oral 1 mg/kg once daily for 5 days, IL-31 1.75 μg/kg i.v. on day 5
Method: Ten healthy adult male Beagle dogs with no previous history of pruritus or skin disease were selected. […] Afterward, all dogs received repeated administration of oral solution and again intravenously recombinant canine IL-31 injections to assess inhibition of IL-31 induced itch behavior. (See, e.g., Gonzales, Vet. Dermatol. 2016, 27, 34-e10 and Pearson, Vet. Sci. 2023, 10, 369)
An oral solution of a representative compound of the present disclosure, Example 33a, at 1 mg/kg once daily in the morning for five (5) days, was administered to each dog in a crossover design for the five (5) consecutive days. All dogs were fasted during the oral administration and thirty minutes (30 min) post oral drug administration. On day 5, all dogs were administered a recombinant canine IL-31 intravenously at the dose of 1.75 μg/kg.

GM-CSF/pSTAT5 = assay: Cytokine function assay GM-CSF/pSTAT5 in lysed whole blood cells; type: cell-based; conditions: Whole blood cell, read-out: IC50 GM-CSF
Method: (§3) Cytokine Function Assay Protocols for IL-4/pSTAT6 and GM-CSF/pSTAT5
GM-CSF/pSTAT5: • Whole blood from a healthy donor was lysed to remove red blood cells. Cells were plated onto a 96 well plate. Compound was added and incubated for 1 hour (at 37° C.). After 1 hour, cells were stimulated with GM-CSF for 15 minutes. Cells were fixed and stained with anti-pSTAT5 antibody. After staining, cells were read on a Beckman-Coulter CytoFLEX.

[2] = Pharmacokinetic profile after single oral administration in Beagle dogs; type: in vivo; conditions: male Beagle dogs, single oral dose about 1.0 mg/kg, fasted
Method: Summary of Pharmacokinetic (PK) profile
Three healthy male Beagle dogs were studied to determine a representative pharmacokinetic (PK) profile following a single oral administration of 1.0 mg/kg to each dog in a fasted state. Blood samples were collected at pre-dose, 0.25, 0.5, 1, 2, 4, 8, 24; 32, and 48 h post dose following oral administration (1 mg/mL in 10% Propylene glycol (PG), 45% PEG400, 7% Cremophor EL, 38% 50 mM citrate buffer pH 3.0 suspension or clear solution).

[3] = Dog LM (liver microsome) assay; type: in vitro ADME; conditions: Table 3a; predicted clearance as percent of liver blood flow, 1 μM, 1 mg/ml microsomal protein
Procedure, shortened: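 Pooled Beagle liver microsomes (1 mg/ml protein), compound 1 μM, Tris pH 7.6 with 5 mM MgCl2, 37 °C, started with 1 mM NADPH; parent loss by LC-MS/MS over several time points.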

IL-4/pSTAT6 = assay: Cytokine function assay IL-4/pSTAT6 in PBMC; type: cell-based; conditions: PBMC, read-out: IC50 IL-4, Table 3a
Method: as §3
IL-4/pSTAT6: • PBMC from a healthy donor was plated onto a 96 w plate. Compound was added and incubated for 1 hour (at 37° C.). After 1 hour, cells were stimulated with IL-4 for 15 minutes. Cells were fixed and stained with anti-pSTAT6 antibody. After staining, cells were read on a Beckman-Coulter CytoFLEX.

Chain of JAK1 (P23458 whole entry, species assumed): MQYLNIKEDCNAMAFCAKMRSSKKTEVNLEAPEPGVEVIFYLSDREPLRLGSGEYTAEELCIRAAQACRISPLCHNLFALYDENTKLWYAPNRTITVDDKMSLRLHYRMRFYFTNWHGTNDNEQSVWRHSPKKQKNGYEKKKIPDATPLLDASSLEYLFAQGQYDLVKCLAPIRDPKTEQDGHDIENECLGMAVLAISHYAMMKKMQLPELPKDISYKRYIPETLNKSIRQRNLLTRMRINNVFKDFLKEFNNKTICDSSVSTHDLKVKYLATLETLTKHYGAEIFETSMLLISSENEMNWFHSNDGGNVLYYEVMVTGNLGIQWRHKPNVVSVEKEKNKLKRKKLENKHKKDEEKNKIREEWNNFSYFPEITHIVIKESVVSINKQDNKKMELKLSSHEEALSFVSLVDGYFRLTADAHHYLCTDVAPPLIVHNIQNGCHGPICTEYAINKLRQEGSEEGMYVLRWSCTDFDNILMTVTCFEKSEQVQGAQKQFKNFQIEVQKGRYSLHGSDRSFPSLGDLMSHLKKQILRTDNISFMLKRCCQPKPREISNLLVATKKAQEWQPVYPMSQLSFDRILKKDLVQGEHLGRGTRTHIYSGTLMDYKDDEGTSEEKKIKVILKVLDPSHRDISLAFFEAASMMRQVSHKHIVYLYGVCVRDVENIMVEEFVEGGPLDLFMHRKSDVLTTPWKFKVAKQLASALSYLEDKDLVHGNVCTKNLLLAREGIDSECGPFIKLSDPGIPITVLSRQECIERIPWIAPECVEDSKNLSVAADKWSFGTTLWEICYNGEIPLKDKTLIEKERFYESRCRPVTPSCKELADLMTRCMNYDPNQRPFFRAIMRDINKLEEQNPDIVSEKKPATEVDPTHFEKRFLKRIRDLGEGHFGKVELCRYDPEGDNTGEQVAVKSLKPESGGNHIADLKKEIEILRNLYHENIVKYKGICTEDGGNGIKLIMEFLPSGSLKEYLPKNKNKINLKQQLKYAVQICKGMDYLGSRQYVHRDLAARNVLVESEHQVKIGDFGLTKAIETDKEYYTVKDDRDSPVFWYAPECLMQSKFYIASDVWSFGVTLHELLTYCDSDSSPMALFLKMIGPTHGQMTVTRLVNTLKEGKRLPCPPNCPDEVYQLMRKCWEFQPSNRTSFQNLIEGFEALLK
Chain of JAK2 (O60674 whole entry, species assumed): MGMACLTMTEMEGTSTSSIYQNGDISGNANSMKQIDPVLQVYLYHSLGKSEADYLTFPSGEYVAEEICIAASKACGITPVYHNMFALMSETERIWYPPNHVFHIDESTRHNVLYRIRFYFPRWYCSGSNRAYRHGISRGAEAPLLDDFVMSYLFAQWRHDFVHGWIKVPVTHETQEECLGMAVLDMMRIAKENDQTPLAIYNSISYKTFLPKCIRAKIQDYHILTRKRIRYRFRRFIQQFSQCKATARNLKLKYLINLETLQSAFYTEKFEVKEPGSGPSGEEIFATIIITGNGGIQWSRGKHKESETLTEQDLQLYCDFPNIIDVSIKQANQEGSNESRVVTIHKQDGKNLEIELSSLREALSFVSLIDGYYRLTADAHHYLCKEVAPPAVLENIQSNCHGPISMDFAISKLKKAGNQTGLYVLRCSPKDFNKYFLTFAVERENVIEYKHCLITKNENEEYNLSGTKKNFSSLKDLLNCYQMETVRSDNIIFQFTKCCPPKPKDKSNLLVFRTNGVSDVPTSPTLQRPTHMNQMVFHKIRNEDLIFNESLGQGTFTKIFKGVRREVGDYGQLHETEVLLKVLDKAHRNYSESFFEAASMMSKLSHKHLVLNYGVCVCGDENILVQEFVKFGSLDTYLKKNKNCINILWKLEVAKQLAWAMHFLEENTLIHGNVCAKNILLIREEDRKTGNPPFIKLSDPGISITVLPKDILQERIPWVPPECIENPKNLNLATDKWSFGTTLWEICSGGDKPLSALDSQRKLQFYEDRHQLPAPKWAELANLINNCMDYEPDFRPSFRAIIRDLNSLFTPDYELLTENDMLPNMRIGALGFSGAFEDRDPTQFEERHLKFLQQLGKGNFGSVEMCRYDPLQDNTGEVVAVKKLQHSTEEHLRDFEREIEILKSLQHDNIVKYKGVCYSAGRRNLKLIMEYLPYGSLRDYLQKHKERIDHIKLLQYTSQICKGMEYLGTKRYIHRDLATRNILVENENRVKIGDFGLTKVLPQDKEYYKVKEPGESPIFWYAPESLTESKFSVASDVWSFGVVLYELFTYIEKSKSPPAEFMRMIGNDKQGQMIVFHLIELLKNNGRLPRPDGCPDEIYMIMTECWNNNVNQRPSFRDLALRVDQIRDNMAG

In the case of `Cc1cnc(Nc2cc3c(c(C(F)(F)F)c2)B(O)OC3)nc1N[C@@H]1COCC[C@H]1C#N` (single isomer, unassigned) [Example 033a, (trans)-3-[[2-[[1-hydroxy-7-(trifluoromethyl)-3H-2,1-benzoxaborol-5-yl]amino]-5-methyl-pyrimidin-4-yl]amino]tetrahydropyran-4-carbonitrile], the IC50 (IL-31) is reported as 19.1 nM, the IC50 (JAK2) is reported as 8.1 nM and the IC50 (JAK1) is reported as 0.4 nM. The “anti-pruritic effect compared to IL-31 baseline/alone” value [1] was “significant anti-pruritic effect”, the IC50 (GM-CSF/pSTAT5) was 1700 nM and the Cmax ([2]; dog, in vivo) was 279 ng/mL. For the same molecule, the AUC(0-inf) ([2]; dog, in vivo, read-out: Mean AUCINF_obs) was 2560 ng·h/mL, the AUC(0-t) ([2]; dog, in vivo, read-out: Mean AUClast) was 2460 ng·h/mL and the concentration at 48 h ([2]; dog, in vivo, read-out: Mean Clast) was 4.74 ng/mL. The half-life ([2]; dog, in vivo, read-out: Mean T1/2 (converted)) was 14.6 h, the Tmax ([2]; dog, in vivo, read-out: Median Tmax) was 1 h and the “Median Tlast” value [2] was 48 h. For the same molecule, the “Dog LM QH” value [3] was less than 19.9% and the IC50 (IL-4/pSTAT6) was 136 nM.
